# Test system: NR2A, GluR1 and CREB
# Test: Immunoblot and immunofluorescence of synaptic molecules in Ppara-null hippocampal neurons
# Assay type: cell-based, mouse
# Conditions: 5 μM HEX, 5 μM OCT, 50 μM HMB
# Procedure: (FIG. 17A) Immunoblot analyses followed by densitometric analyses of NR2A (FIG. 17B), GluR1 (FIG. 17C) and CREB (FIG. 17D) were performed in Ppara-null and WT hippocampal neurons treated with 5 μM HEX, 5 μM OCT and 50 μM HMB. Data are mean±SD of three different experiments. ^ap<0.05 versus WT-control. Immunocytochemical analyses of NR2A (FIG. 17E) and GluR1 (FIG. 17F) in WT and Ppara-null hippocampal neurons treated with HEX, OCT and HMB. Hippocampal neurons were transduced with lenti-GFP for 48 h followed by treatment with different ligands. Immunoblot analyses followed by relative densitometric analyses of CREB in Ppara-null hippocampal neurons transduced with lentivirions containing different Ppara constructs followed by treatment with HEX (FIG. 17G-H), OCT (FIG. 17I-J) and HMB (FIG. 17K-L). Bands were scanned and presented as relative to control (FIG. 17H, HEX; FIG. 17J, OCT; FIG. 17L, HMB). Data are mean±SD of three different experiments. ^ap<0.05 vs FLPpara control.
# Isolation of Mouse Hippocampal Neurons: Hippocampal neurons were isolated from fetuses (E18) of pregnant female Ppara-null and strain-matched WT littermate mice as described by us^6,13,35-36 with some modifications. Briefly, dissection and isolation procedures were performed in an ice-cold, sucrose buffer solution (sucrose 0.32 M, Tris 0.025 M; pH 7.4)^37. The skin and the skull were carefully removed from the brain by scissors followed by peeling off the meninges by a pair of fine tweezers. Next, a fine incision was made in the middle line around the circle of Willis and medial temporal lobe was opened up. Hippocampus was isolated as a thin slice of tissue located near the cortical edge of medial temporal lobe. Hippocampal tissues isolated from all fetal pups (n>10) were combined together and homogenized with 1 ml of trypsin for 5 minutes at 37° C. followed by neutralization of trypsin. The single cell suspension of hippocampal tissue was plated in the poly-D-lysine pre-coated 75 mm flask. Five min after plating, the supernatants were carefully removed and replaced with complete neurobasal media. The next day, 10 μM AraC was added to remove glial contamination in the neuronal culture. The pure cultures of hippocampal neurons were allowed to differentiate fully for 9-10 days before treatment^35,36,38.
# For whole-cell and tissue lysates, samples were homogenized in RIPA buffer containing protease and phosphatase inhibitors (Sigma), passed 10 times through a 26-gauge needle, rotated end over end for 30 min at 4° C., and centrifuged for 10 min at 18,000×g. The supernatant was aliquoted and stored at −80° C. until use. Protein concentrations were determined using a NanoDrop 2000 (Thermo Fisher), and 15-30 μg sample was heat-denatured and resolved on 10% or 12% polyacrylamide-SDS gels, transferred to 0.45 μm nitrocellulose membranes under semidry conditions (15V for 12 min). Membranes were blocked for 1 h with blocking buffer (Li-Cor), incubated with primary antibodies overnight at 4° C. under shaking conditions, washed, incubated with IR-dye-labeled secondary antibodies (1:17,000; Li-Cor) for 45 min at room temperature, washed, and visualized with the Odyssey Infrared Imaging System (Li-Cor). Blots were converted to grayscale and then binary, analyzed using Fiji, and normalized to appropriate loading controls.
Compound,expression of CREB,expression of NR2A
"CCCCCCCCCCCCCCCC(N)=O [HEX, hexadecanamide]",not,not
CCOC(=O)C(C)(C)C(C)O (stereo not drawn) [HMB],not,not
"CCCCCCCCC=CCCCCCCCC(N)=O [OCT, 9-octadecenamide]",not,not

# Molecular target: T1, PPARα (Mus musculus, UniProt P23204)
# T1 construct: GFP; made in house; host or cells: not clearly stated (lentivirus packaged in HEK293FT cells)
# T1 sequence (P23204 1-468): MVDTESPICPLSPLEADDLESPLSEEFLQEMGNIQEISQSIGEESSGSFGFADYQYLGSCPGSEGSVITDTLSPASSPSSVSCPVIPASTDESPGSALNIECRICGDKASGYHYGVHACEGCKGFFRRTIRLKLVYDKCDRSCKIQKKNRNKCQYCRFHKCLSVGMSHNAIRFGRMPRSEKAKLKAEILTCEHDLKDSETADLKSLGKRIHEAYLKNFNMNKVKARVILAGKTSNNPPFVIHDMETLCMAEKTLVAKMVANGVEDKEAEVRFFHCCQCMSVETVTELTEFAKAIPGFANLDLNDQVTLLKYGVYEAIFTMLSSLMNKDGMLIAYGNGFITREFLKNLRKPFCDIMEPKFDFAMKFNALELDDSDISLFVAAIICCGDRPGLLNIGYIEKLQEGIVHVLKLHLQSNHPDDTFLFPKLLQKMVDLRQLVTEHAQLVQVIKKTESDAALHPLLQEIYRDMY
# Test: Thermal shift assay, full length PPARα with ligands
# Assay type: binding
# Conditions: full length protein with ligand; protein only x=45.96321
# Procedure: Lentivirus-mediated de novo expression studies were performed, where wild type full-length (GFP-FLPpara) was overexpressed and three different LBD-mutated PPARα (GFP-Y314D, GFP-Y464D and GFP-Y314D/Y464D Ppara) recombinant proteins (FIG. 9D) were expressed in neurons followed by binding analyses with three endogenous ligands. Briefly, site directed mutagenesis was performed in the mouse PPARα with Y314 and Y464 residues replaced separately or together with aspartate (D). After that, the entire mouse GFP-Ppara gene (GFP-FLPpara) and three different mutated genes were cloned in the pLenti6/V5-TOPO lentiviral expression vector (FIG. 3D), packaged in lentivirus particle with HEK293FT cells, purified full length and mutated PPARα proteins in a GFP-affinity column, and finally thermal shift assays were performed in order to analyze their conformational stability. […] After 48 h of transduction, the cells were homogenized, passed through GFP-affinity column, eluted, fractionated with chloroform-methanol, and finally analyzed by GC-MS for the detection of ligands. […] On the other hand, mutation of the Y464 completely knocked down the ligand binding affinity as we observed profound loss of ligand binding in both lenti-GFP-Y464D-Ppara (FIG. 3K, FIG. 9K) and lenti-GFP-Y314D/Y464D-Ppara (FIG. 3L, FIG. 9L)-transduced Ppara-null neurons. Throughout these analyses, we used 2,4-bis (α, α-dimethyl benzyl) phenol as an internal standard (Supplementary FIG. 5A-F). We normalized peak area of different ligands with that of internal standard and then quantified the binding affinity of these ligands with different construct of PPARα by peak integration statistics (Table 1).
# Thermal shift assays were performed in Applied Biosystems 7500 standard real-time thermal cycler machine with commercially available thermal shift dye kit (Life technologies; Cat #4461146). For each reaction, purified protein (0.5 μg to 1 μg) was added to 18 μL of thermal shift buffer provided with the kit, and 1-2 μL of dye. […]
row,x at y=50 of thermal shift curve (melting temperature),Compound
1,59.2835,"CCCCCCCCCCCCCCCC(N)=O [HEX, hexadecanamide]"
2,58.49,CCOC(=O)C(C)(C)C(C)O (stereo not drawn) [HMB]
3,59.6128,"CCCCCCCCC=CCCCCCCCC(N)=O [OCT, 9-octadecenamide]"

# From patent publication US10617664B2, “Brain derived PPARα ligands” (Rush University Medical Center, priority 2015, dated 2020)
